Publication PMC12311606, “An efficient brain delivery system co-loaded with multiple components of Salvia miltiorrhiza for synergistic treatment of ischemic stroke” (Materials Today Bio, 2025)

Legend:
[1] = Adsorption kinetic model fitting of the five components on the carrier; type: physicochemical; parameters: k, pseudo-first order: unit not given beside the values
Method: Preparation of W/HPDA/L nanoparticles: Briefly, 0.5 mL of TEOS were added over a stirred solution of 2 mL of NH3∙H2O solution in 100 mL of ethanol. The reaction mixture was vigorously stirred at room temperature for 3 h to obtain SiO2 nanoparticles. Then, 1.5 mL of APTES were dropped to the reaction mixture. Finally, SiO2-NH2 nanoparticles were collected by centrifugation at 10000 rpm for 10 min, then washed twice with ethanol and resuspended in ethanol for further use. As for the preparation of W@SiO2 nanoparticles, 1 mL of SiO2-NH2 nanoparticles and 4 mL of water components solution (1 mg RA and 12 mg SAB) were first mixed together. Under stirring for 12 h, the resultant W@SiO2 nanoparticles were acquired by centrifugation (10000 rpm, 10 min) and washed thrice with DI water. The total content of water-soluble in the supernatant (free RA and SAB) were determined by HPLC. W@SiO2 nanoparticles obtained by centrifugation were resuspended with Tris-HCl solution containing dopamine hydrochloride. PDA was prepared according to our precious report. This was followed by the addition of 2 mL of etching solution. Then, through centrifugation (12000 rpm, 5 min) and washing with ultrapure water three times, W/HPDA nanoparticles were acquired for later use. After dissolving 6 mg of lipid-soluble components (1 mg CPT, 2.5 mg TSI and 2.5 mg TSA) in 4 mL of ethanol, it was added to 1 mL of W/HPDA nanoparticles dispersed solution. After 12 h of stirring at room temperature, W/HPDA/L nanoparticles were collected by centrifugation and subsequently dispersed in water for further use. Similarly, HPDA was synthesized as previously described. 13 mg of water-soluble components solution (1 mg RA and 12 mg SAB) and 6 mg of lipid-soluble components (1 mg CPT, 2.5 mg TSI and 2.5 mg TSA) were dissolved in 4 mL PBS containing 0.1 % DMSO and added to 3 mL HPDA aqueous dispersion. The mixture was then stirred at room temperature for 12 h, centrifuged, and washed to obtain HPDA/WL nanoparticles. The total content of lipid-soluble in the supernatant (free CPT, TSI and TSA) were determined by HPLC.
An adsorption kinetic model was used to fit the effect of adsorption time on the adsorption performance of adsorbents, further speculating the mechanism of adsorption. The results of the adsorption kinetics of five components were fitted using the pseudo-first-order and pseudo-second-order model, respectively.

[2] = In vitro drug release in 1 % SDS (dialysis, HPLC); type: physicochemical; details: release from W/HPDA/L, 1 % SDS pH 6.5–6.8
Method: Five compounds were measured by HPLC at 0.5, 1, 2, 4, 8, 12 and 24 h. In order to elucidate the release mechanism of W/HPDA/L, release kinetic models (Ritger-Peppas model) were employed to fit the data available.

bEnd.3 cells [3] = assay: Viability of bEnd.3 cells following borneol treatment (CCK-8); type: cell-based; details: 5 to 500 μmol/l
Method: (§1) 6 × 10^4 bEnd.3 cells were seeded in the donor chamber of 24-well transwell inserts. […] The viability of bEnd.3 cells following borneol treatment was assessed using the Cell Counting Kit-8 (CCK-8) assay. We added 0.9 mL of PBS-based assay medium to blank 24-well culture plates and 0.2 mL of borneol (0, 100, 400 μM) to the apical side of the BBB layers. TEER was measured at 5, 10, and 15 min. Additionally, 100 nm silica nanoparticles and sodium fluorescein at the same concentrations were administered at three time points. […] The intracellular tension of the tight junction protein ZO-1 was evaluated using fluorescence resonance energy transfer (FRET)-based tension probes and cpstFRET analysis, as previously described. bEnd.3 cells were transfected with ZO-1 probes and incubated with 1000 μg/mL geneticin. After treating the cells with borneol for 15 min, the borneol was removed, and observations continued for an additional 15 min. Cells treated with Hanks' solution served as the control group. The cell images were taken with × 63 oil lens on a confocal microscope (SP5; Leica, Wetzlar, Germany). The CFP/FRET ratio was calculated using the equation 1/E = cerulean donor/venus acceptor.

bEnd.3 cells [4] = assay: In vitro BBB permeability (bEnd.3 transwell model); type: cell-based; details: 100 and 400 μmol borneol
Method: as §1, with “TEER was measured at 5, 10, and 15 min.” left out, “cpstFRET” left out

ZO-1 = ZO-1 tension by FRET-based tension probes in bEnd.3 cells; type: cell-based; details: 15 min treatment, then removal and 15 min observation
Method: as §1

Row | Qe, pseudo-first order [1] | Qe, pseudo-second order [1] | Time at which maximum BBB permeability is reached (bEnd.3 cells [4]) | SMILES | k, pseudo-first order [1] | k, pseudo-second order [1] | Ritger-Peppas release exponent n [2] | Ritger-Peppas release model coefficient (y = k t^n) [2] | Cytotoxic effects on bEnd.3 cells (bEnd.3 cells [3]) | ZO1 tension (CFP/FRET) (ZO-1)
1 | 4.14 mg/g | 4.74 mg/g |  | Cc1coc2c1C(=O)C(=O)c1c-2ccc2c1CCCC2(C)C [TSA, tanshinone IIA] | 0.89 | 0.21 | n = 0.37 | y = 24.68t^n |  | 
2 | 6.23 mg/g | 7.78 mg/g |  | O=C(/C=C/c1ccc(O)c(O)c1)O[C@H](Cc1ccc(O)c(O)c1)C(=O)O [RA, rosmarinic acid] | 0.29 | 0.03 | n = 0.83 | y = 6.28t^n |  | 
3 | 4.50 mg/g | 5.21 mg/g |  | Cc1coc2c1C(=O)C(=O)c1c-2ccc2c(C)cccc12 [TSI, tanshinone I] | 0.53 | 0.16 | n = 0.35 | y = 27.02t^n |  | 
4 |  |  | 10 min | CC1(C)C2CCC1(C)C(O)C2 (stereo not shown) [borneol] |  |  |  |  | no cytotoxic effects | increased but decreased after 15 min of borneol removal
5 | 18.27 mg/g | 21.95 mg/g |  | O=C(/C=C/c1ccc(O)c2c1[C@H](C(=O)O[C@H](Cc1ccc(O)c(O)c1)C(=O)O)[C@@H](c1ccc(O)c(O)c1)O2)O[C@H](Cc1ccc(O)c(O)c1)C(=O)O [SAB, salvianolic acid B] | 0.27 | 0.01 | n = 0.78 | y = 8.41t^n |  | 
6 |  |  |  | N[C@@H](CCC(=O)O)C(=O)O [Glu, Glutamate, reference compound] |  |  |  |  |  | increased and continued to rise even 15 min after Glu removal

Row | SMILES | Qe, pseudo-first order [1] | Qe, pseudo-second order [1] | Time at which maximum BBB permeability is reached (bEnd.3 cells [4]) | k, pseudo-first order [1] | k, pseudo-second order [1] | Ritger-Peppas release exponent n [2] | Ritger-Peppas release model coefficient (y = k t^n) [2] | Cytotoxic effects on bEnd.3 cells (bEnd.3 cells [3]) | ZO1 tension (CFP/FRET) (ZO-1)
7 | C[C@H]1COC2=C1C(=O)C(=O)c1c2ccc2c1CCCC2(C)C [CPT, cryptotanshinone] | 4.60 mg/g | 5.06 mg/g |  | 0.76 | 0.14 | n = 0.39 | y = 19.26t^n |  | 
